Measured values from US8853246B2 (Dow AgroSciences LLC, priority 2009, dated 2014).

Columns and labels:
[1] = test system: Green Peach Aphid (Myzus Persicae); test: Insecticidal test for green peach aphid in foliar spray assay (col. MYZUPE); assay type: in vivo; conditions: Myzus persicae, 72 h, green peach aphid, read-out: MYZUPE 200 ppm (Corrected % Control, rating)
Procedure: (§1) The compounds were tested against cotton aphid, green peach aphid, and sweet potato whitefly using procedures described in the following examples and reported in Table 2.
(§2) In each case of Table 2, the rating scale is as follows at 200 ppm.
Insecticidal Test for Green Peach Aphid (Myzus Persicae) in Foliar Spray Assay
Cabbage seedlings grown in 3-inch pots, with 2-3 small (3-5 cm) true leaves, were used as test substrate. The seedlings were infested with 20-50 green peach aphids (wingless adult and nymph) one day prior to chemical application. Four pots with individual seedlings were used for each treatment. Compounds (2 mg) were dissolved in 2 mL of acetone/methanol (1:1) solvent, forming stock solutions of 1000 ppm. The stock solutions were diluted 5× with 0.025% Tween 20 in H2O to obtain a test solution at 200 ppm. A hand-held Devilbiss sprayer was used for spraying a solution to both sides of cabbage leaves until runoff. Reference plants (solvent check) were sprayed with the diluent only. Treated plants were held in a holding room for three days at approximately 25° C. and 40% relative humidity (RH) prior to grading. Evaluation was conducted by counting the number of live aphids per plant under a microscope. Corrected % Control=100*(X−Y)/X • where X=No. of live aphids on solvent check plants • Y=No. of live aphids on treated plants

[2] = test system: Sweetpotato Whitefly-Crawler (Bemisia Tabaci); test: Insecticidal test for sweetpotato whitefly-crawler in foliar spray assay (col. BEMITA); assay type: in vivo; conditions: Bemisia tabaci, sweetpotato whitefly-crawler, read-out: BEMITA 200 ppm (Corrected % Control, rating)
Procedure: as §1, §2
Insecticidal Test for Sweetpotato Whitefly-Crawler (Bemisia Tabaci) in Foliar Spray Assay
Cotton plants grown in 3-inch pots, with 1 small (3-5 cm) true leaf, were used as test substrate. The plants were placed in a room with whitefly adults. Adults were allowed to deposit eggs for 2-3 days. After a 2-3 day egg-laying period, plants were taken from the adult whitefly room. Adults were blown off leaves using a hand-held Devilbiss sprayer (23 psi). Plants with egg infestation (100-300 eggs per plant) were placed in a holding room for 5-6 days at 82° F. and 50% RH for egg hatch and crawler stage to develop. Four cotton plants were used for each treatment. Compounds (2 mg) were dissolved in 1 mL of acetone solvent, forming stock solutions of 2000 ppm. The stock solutions were diluted 10× with 0.025% Tween 20 in H2O to obtain a test solution at 200 ppm. A hand-held Devilbiss sprayer was used for spraying a solution to both sides of cotton leaf until runoff. Reference plants (solvent check) were sprayed with the diluent only. Treated plants were held in a holding room for 8-9 days at approximately 82° F. and 50% RH prior to grading. Evaluation was conducted by counting the number of live nymphs per plant under a microscope. Insecticidal activity was measured by using Abbott's correction formula and presented in Table 2 (see col. “BEMITA”): Corrected % Control=100*(X−Y)/X • where X=No. of live nymphs on solvent check plants • Y=No. of live nymphs on treated plants Pesticidally Acceptable Acid Addition Salts, Salt Derivatives, Solvates, Ester Derivatives, Polymorphs, Isotopes and Radionuclides

Compound | pest or weed control at 200 ppm [1] | pest or weed control at 200 ppm [2]
CSCC(C)(C)C(=O)N(C)c1sc(-c2cccnc2)nc1C(F)(F)F [Compound 45] | < 80% | 80 to 100%
CC(C)C(=O)N(C)c1sc(-c2cccnc2)nc1C(F)(F)F [Compound 46] | < 80% | < 80%
CCc1nc(-c2cccnc2)sc1N(C)C(=O)CCSC [Compound 47] | 80 to 100% | 80 to 100%
CCc1nc(-c2cccnc2)sc1N(C)C(=O)C(C)C [Compound 48] | 80 to 100% | 80 to 100%
CCc1nc(-c2cccnc2)sc1N(C)C(=O)C(C)(C)CSC [Compound 49] | < 80% | 80 to 100%
CCc1nc(-c2cccnc2)sc1N(C)C(=O)C(C)CSC (centres unmarked) [Compound 50] | 80 to 100% | 80 to 100%
CSCCC(=O)N(C)c1sc(-c2cncnc2)nc1C [Compound 51] | 80 to 100% | 80 to 100%
CSCC(C)C(=O)N(C)c1sc(-c2cncnc2)nc1C (centres unmarked) [Compound 52] | < 80% | 80 to 100%
CSCC(C)(C)C(=O)Nc1sc(-c2cccnc2)nc1C [Compound 57] | 80 to 100% | 80 to 100%
CSCCC(=O)N(C)c1sc(-c2cccnc2)nc1C(C)C [Compound 59] | < 80% | 80 to 100%
CSCC(C)C(=O)N(C)c1sc(-c2cccnc2)nc1C(C)C (centres unmarked) [Compound 60] | < 80% | < 80%
CCN(C(=O)CCSC)c1sc(-c2cccnc2)nc1-c1ccccc1 [Compound 61] | < 80% | < 80%
CCN(C(=O)C(C)CSC)c1sc(-c2cccnc2)nc1-c1ccccc1 (centres unmarked) [Compound 62] | < 80% | < 80%
CCN(C(=O)C(C)C)c1sc(-c2cccnc2)nc1-c1ccccc1 [Compound 63] | < 80% | < 80%
CSCCC(=O)N(C)c1sc(-c2cccnc2)nc1Cl [Compound 66, N-(4-chloro-2-pyridin-3-yl-thiazol-5-yl)-N-methyl-3-methylsulfanyl-propionamide] | 80 to 100% | 80 to 100%
CSCCNC(=O)N(C)c1cnc(-c2cncc(F)c2)s1 [Compound 72, [2-(5-fluoropyridin-3-yl)-thiazol-5-yl]-1-methyl-3-(2-methylsulfanyl-ethyl)urea] | 80 to 100% | < 80%
CCC(C)NC(=O)N(C)c1cnc(-c2cncc(F)c2)s1 (centres unmarked) [Compound 73, 3-sec-Butyl-1-[2-(5-fluoropyridin-3-yl)-thiazol-5-yl]-1-methyl-urea] | 80 to 100% | 80 to 100%
CSCCN(C)C(=O)N(C)c1cnc(-c2cncc(F)c2)s1 [Compound 74, [2-(5-fluoropyridin-3-yl)-thiazol-5-yl]-1,3-dimethyl-3-(2-methylsulfanyl-ethyl)urea] | 80 to 100% | 80 to 100%
CSCCOC(=O)N(C)c1cnc(-c2cncc(F)c2)s1 [Compound 75, [2-(5-fluoropyridin-3-yl)-thiazol-5-yl]-methyl-carbamic acid 2-methylsulfanyl-ethyl Ester] | 80 to 100% | < 80%
CCOC(=O)N(C)c1cnc(-c2cncc(F)c2)s1 [Compound 76, [2-(5-Fluoropyridin-3-yl)-thiazol-5-yl]-methyl-carbamic acid ethyl ester] | 80 to 100% | 80 to 100%
CN(C(=O)OCc1ccc([N+](=O)[O-])o1)c1cnc(-c2cncc(F)c2)s1 [Compound 77, [2-(5-Fluoropyridin-3-yl)-thiazol-5-yl]-methyl-carbamic acid 5-nitro-furan-2-ylmethyl ester] | 80 to 100% | < 80%
CN(C(=O)CC[S+](C)[O-])c1cnc(-c2cncc(F)c2)s1 (centres unmarked) [Compound 78, N-[2-(5-fluoropyridin-3-yl)-thiazol-5-yl]-3-methanesulfinyl-N-methyl-propionamide] | 80 to 100% | < 80%

Compound | pest or weed control at 200 ppm [1] | pest or weed control at 200 ppm [2]
Cc1nc(-c2cncc(F)c2)sc1N(C)C(=O)C(C)C[S+](C)[O-] (centres unmarked) [Compound 86] | 80 to 100% | 80 to 100%
Cc1nc(-c2cccnc2)sc1N(C)C(=O)C(C)C[S+](C)[O-] (centres unmarked) [Compound 87] | 80 to 100% | 80 to 100%
CN(C(=O)CC[S+](C)[O-])c1sc(-c2cccnc2)nc1C(F)(F)F (centres unmarked) [Compound 88] | 80 to 100% | 80 to 100%
CC(C[S+](C)[O-])C(=O)N(C)c1sc(-c2cccnc2)nc1C(F)(F)F (centres unmarked) [Compound 89] | < 80% | 80 to 100%
Cc1nc(-c2cccnc2)sc1N(C)C(=O)CC[S+](C)[O-] (centres unmarked) [Compound 90] | 80 to 100% | 80 to 100%
Cc1nc(-c2cncc(F)c2)sc1N(C)C(=O)CC[S+](C)[O-] (centres unmarked) [Compound 91] | 80 to 100% | 80 to 100%
Cc1nc(-c2cccnc2)sc1N(C)C(=O)CCS(C)(=O)=O [Compound 95, 3-methanesulfonyl-N-methyl-N-(4-methyl-2-pyridin-3-yl-thiazol-5-yl)-propionamide] | 80 to 100% | 80 to 100%
Cc1nc(-c2cccnc2)sc1N(C)C(=O)C(C)(C)CS(C)(=O)=O [Compound 97] | 80 to 100% | 80 to 100%
CSCC(C)C(=O)Nc1sc(-c2cccnc2)nc1C(F)(F)F (centres unmarked) [Compound 134] | 80 to 100% | < 80%
CSCC(C)(C)C(=O)Nc1sc(-c2cccnc2)nc1C(F)(F)F [Compound 135] | 80 to 100% | < 80%
COc1cncc(-c2nc(C)c(NC(=O)C(C)CSC)s2)c1 (centres unmarked) [Compound 137] | < 80% | < 80%
C=CCSCC(C)C(=O)N(C)c1sc(-c2cccnc2)nc1C (centres unmarked) [Compound 138] | 80 to 100% | 80 to 100%
CSCC(C)(C)C(=O)Nc1sc(-c2cncc(F)c2)nc1C [Compound 139] | 80 to 100% | 80 to 100%
CSCC(C)C(=O)N(C(=O)C(C)C)c1sc(-c2cncc(S(C)(=O)=O)c2)nc1C (centres unmarked) [Compound 152] | < 80% | < 80%
CSCC(C)C(=O)N(C(=O)OC(C)(C)C)c1sc(-c2cccnc2F)nc1C (centres unmarked) [Compound 154] | < 80% | < 80%
CCOC(=O)c1cncc(-c2nc(C)c(N(C(=O)OC(C)(C)C)C(=O)C(C)CSC)s2)c1 (centres unmarked) [Compound 155] | < 80% | < 80%
CSCC(C)C(=O)N(C(=O)OC(C)(C)C)c1sc(-c2cncc(C)c2)nc1C (centres unmarked) [Compound 156, [4-methyl-2-(5-methyl-pyridin-3-yl)-thiazol-5-yl]-(2-methyl-3-methylsulfanyl-propionyl)-carbamic acid tert-butyl ester] | 80 to 100% | < 80%
CSCC(C)C(=O)N(C(=O)OC(C)(C)C)c1sc(-c2cncc(S(C)(=O)=O)c2)nc1C (centres unmarked) [Compound 157] | < 80% | < 80%
Cc1nc(-c2ccc(F)nc2)sc1N(C(=O)C(C)C)C(=O)C(C)C [Compound 162] | 80 to 100% | 80 to 100%
Cc1nc(-c2cncc(F)c2)sc1NC(=O)C(C)CS(C)(=O)=NC#N (centres unmarked) [Compound 164, 3-[cyano(methyl)sulfonimidoyl]-N-[2-(5-fluoropyridin-3-yl)-4-methyl-1,3-thiazol-5-yl]-2-methylpropanamide] | 80 to 100% | < 80%
Cc1nc(-c2cncc(F)c2)sc1N(C)C(=O)OC(C)(C)C [Compound 165] | 80 to 100% | 80 to 100%
